The kinase profiling compilation of Christmann-Franck et al. (2016)

Experiments:
Experiment in all cases: radiometric filter-binding kinase assay
[1] = biological target: INSRR (human) (UniProt P14616)
[2] = tested on: PRKAA1 or PRKAA2 (rat); settings: accession and sequence are those of the human protein
[3] = biological target: CAMKK2 (human) (UniProt Q96RR4)
[4] = biological target: NUAK1 (human) (UniProt O60285)
[5] = biological target: MARK2 (human) (UniProt Q7KZI7)
[6] = biological target: PAK7 (human) (UniProt Q9P286)
Sequence of PAK7 (human) (Q9P286 whole entry, looked up): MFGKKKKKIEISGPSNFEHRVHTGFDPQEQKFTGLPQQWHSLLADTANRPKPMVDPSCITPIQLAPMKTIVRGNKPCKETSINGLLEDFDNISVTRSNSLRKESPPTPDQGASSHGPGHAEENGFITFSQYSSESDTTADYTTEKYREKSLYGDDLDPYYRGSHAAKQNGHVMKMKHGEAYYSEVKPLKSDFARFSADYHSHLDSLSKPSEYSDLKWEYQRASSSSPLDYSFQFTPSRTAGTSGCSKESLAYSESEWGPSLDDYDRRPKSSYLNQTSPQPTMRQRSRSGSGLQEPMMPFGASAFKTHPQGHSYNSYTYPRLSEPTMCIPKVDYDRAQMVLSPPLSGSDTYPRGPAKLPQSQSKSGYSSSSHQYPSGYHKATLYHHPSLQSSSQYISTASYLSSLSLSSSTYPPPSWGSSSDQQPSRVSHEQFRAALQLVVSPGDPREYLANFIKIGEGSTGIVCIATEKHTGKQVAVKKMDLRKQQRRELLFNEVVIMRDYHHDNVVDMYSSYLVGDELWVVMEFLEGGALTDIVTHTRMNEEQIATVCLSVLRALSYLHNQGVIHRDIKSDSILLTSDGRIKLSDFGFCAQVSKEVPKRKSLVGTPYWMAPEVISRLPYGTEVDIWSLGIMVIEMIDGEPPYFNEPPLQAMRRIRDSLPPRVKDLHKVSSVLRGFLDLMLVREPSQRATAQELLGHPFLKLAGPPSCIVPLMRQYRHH

[7] = biological target: JAK2 JH1 JH2 (human) (UniProt O60674)
[8] = biological target: CSK (human) (UniProt P41240)
[9] = biological target: RPS6KA5 KD1 KD2 (human) (UniProt O75582)
[10] = biological target: DYRK2 (human) (UniProt Q92630)
Sequence of DYRK2 (human) (Q92630 whole entry, looked up): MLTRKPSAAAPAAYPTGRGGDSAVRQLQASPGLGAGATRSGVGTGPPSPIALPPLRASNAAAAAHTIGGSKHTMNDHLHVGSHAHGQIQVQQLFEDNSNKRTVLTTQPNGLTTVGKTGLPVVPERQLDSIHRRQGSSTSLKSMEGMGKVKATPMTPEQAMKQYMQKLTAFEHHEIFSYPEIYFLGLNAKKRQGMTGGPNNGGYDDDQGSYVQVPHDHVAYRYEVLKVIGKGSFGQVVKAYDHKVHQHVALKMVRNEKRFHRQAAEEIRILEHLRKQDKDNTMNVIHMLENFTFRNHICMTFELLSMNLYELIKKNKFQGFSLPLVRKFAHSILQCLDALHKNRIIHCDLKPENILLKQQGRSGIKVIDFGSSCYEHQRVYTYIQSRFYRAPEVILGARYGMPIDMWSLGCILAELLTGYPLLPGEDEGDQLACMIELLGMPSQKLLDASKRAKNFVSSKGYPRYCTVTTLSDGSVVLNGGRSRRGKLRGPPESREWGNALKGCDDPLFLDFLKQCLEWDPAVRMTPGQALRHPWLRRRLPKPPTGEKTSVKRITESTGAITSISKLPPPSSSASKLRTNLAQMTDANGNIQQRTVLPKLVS

[11] = biological target: MARK1 (human) (UniProt Q9P0L2)
[12] = biological target: EPHB2 (human) (UniProt P29323)
Sequence of EPHB2 (human) (P29323 whole entry, looked up): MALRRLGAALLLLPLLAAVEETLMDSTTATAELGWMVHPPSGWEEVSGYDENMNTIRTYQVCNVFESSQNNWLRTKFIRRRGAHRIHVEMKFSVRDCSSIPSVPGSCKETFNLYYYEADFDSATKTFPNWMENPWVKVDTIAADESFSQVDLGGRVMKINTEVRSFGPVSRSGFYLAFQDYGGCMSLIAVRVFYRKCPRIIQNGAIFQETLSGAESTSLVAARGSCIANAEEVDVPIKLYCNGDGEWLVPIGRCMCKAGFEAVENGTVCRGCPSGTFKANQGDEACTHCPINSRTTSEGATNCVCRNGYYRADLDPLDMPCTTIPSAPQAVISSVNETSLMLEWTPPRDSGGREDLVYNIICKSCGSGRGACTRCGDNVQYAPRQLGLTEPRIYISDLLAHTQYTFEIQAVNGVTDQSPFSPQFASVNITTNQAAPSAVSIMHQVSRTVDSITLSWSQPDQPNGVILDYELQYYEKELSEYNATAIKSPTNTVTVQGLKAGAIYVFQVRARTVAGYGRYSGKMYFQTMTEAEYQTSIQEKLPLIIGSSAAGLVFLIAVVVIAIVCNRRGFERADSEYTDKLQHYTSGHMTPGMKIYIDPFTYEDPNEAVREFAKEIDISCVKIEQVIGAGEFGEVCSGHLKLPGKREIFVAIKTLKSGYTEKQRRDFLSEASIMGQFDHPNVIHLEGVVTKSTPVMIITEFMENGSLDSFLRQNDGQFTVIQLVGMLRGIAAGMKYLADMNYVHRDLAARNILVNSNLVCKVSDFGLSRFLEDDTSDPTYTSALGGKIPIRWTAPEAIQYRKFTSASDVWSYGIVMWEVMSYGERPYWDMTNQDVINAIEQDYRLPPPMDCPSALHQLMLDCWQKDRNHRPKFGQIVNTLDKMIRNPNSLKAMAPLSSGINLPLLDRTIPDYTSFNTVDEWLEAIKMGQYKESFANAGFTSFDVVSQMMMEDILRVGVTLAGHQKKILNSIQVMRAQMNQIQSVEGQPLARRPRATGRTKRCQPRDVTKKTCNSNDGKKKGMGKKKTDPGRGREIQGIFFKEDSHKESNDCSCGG

[13] = biological target: NEK2 (human) (UniProt P51955)
[14] = biological target: EPHA2 (human) (UniProt P29317)
[15] = biological target: PRKACA (human) (UniProt P17612)
[16] = biological target: PRKCA (human) (UniProt P17252)
[17] = biological target: MKNK1 (human) (UniProt Q9BUB5)
[18] = biological target: CDK2 CCNA2 (human) (UniProt P20248+P24941)
[19] = biological target: HIPK3 (human) (UniProt Q9H422)
[20] = biological target: NEK6 (human) (UniProt Q9HC98); settings: compound 10.0 µM
[21] = biological target: MAPK15 (human) (UniProt Q8TD08)
[22] = biological target: ERBB4 (human) (UniProt Q15303)
[23] = biological target: INSR (human) (UniProt P06213)
[24] = biological target: CaMK1 (human) (UniProt Q14012)
Sequence of CaMK1 (human) (Q14012 whole entry, looked up): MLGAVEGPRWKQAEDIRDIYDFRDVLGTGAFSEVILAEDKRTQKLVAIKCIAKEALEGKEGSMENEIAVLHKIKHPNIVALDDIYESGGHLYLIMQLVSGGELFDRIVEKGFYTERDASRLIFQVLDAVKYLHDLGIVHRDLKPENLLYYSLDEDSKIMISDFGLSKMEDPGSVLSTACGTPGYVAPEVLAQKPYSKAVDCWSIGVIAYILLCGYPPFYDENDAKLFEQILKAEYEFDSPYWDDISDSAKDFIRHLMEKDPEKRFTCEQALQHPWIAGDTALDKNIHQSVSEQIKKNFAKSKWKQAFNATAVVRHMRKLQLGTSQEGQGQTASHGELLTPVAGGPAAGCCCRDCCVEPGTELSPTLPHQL

[25] = biological target: SRPK1 (human) (UniProt Q96SB4)
[26] = biological target: RIPK2 (human) (UniProt O43353)
Sequence of RIPK2 (human) (O43353 whole entry, looked up): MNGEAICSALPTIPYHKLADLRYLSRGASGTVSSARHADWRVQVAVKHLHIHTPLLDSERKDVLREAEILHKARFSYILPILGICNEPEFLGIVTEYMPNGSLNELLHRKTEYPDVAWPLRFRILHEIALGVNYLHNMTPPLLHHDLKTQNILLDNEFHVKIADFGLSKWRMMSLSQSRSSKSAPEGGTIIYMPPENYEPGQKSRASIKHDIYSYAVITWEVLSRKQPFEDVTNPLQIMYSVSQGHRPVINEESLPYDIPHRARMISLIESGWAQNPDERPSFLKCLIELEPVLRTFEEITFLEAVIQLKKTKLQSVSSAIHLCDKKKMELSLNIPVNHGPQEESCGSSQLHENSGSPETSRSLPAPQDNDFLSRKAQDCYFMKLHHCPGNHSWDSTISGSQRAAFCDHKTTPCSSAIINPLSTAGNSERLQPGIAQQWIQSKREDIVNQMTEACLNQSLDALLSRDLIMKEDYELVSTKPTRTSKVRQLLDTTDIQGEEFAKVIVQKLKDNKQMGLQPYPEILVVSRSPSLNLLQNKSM

[27] = biological target: BRSK1 (human) (UniProt Q8TDC3)
[28] = biological target: EPHA4 (human) (UniProt P54764)
[29] = tested on: LCK (mouse); settings: accession and sequence are those of the human protein
[30] = biological target: MST4 (human) (UniProt Q9P289)
[31] = biological target: MAP2K1 (human) (UniProt Q02750)
[32] = biological target: BTK (human) (UniProt Q06187); settings: compound 1000.0 µM
[33] = biological target: MAPKAPK2 (human) (UniProt P49137)
Sequence of MAPKAPK2 (human) (P49137 whole entry, looked up): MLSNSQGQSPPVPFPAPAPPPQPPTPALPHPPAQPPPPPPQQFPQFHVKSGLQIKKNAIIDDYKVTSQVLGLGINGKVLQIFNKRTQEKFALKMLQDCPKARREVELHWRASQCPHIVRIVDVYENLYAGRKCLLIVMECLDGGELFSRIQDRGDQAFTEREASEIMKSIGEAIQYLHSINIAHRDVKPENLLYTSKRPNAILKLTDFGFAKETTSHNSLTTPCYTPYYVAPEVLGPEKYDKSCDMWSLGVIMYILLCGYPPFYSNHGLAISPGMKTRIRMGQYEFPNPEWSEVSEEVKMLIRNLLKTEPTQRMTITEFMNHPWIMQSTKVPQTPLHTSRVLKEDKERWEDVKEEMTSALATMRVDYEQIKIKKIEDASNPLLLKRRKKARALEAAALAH

Sequence of INSRR (human) (P14616 whole entry, looked up): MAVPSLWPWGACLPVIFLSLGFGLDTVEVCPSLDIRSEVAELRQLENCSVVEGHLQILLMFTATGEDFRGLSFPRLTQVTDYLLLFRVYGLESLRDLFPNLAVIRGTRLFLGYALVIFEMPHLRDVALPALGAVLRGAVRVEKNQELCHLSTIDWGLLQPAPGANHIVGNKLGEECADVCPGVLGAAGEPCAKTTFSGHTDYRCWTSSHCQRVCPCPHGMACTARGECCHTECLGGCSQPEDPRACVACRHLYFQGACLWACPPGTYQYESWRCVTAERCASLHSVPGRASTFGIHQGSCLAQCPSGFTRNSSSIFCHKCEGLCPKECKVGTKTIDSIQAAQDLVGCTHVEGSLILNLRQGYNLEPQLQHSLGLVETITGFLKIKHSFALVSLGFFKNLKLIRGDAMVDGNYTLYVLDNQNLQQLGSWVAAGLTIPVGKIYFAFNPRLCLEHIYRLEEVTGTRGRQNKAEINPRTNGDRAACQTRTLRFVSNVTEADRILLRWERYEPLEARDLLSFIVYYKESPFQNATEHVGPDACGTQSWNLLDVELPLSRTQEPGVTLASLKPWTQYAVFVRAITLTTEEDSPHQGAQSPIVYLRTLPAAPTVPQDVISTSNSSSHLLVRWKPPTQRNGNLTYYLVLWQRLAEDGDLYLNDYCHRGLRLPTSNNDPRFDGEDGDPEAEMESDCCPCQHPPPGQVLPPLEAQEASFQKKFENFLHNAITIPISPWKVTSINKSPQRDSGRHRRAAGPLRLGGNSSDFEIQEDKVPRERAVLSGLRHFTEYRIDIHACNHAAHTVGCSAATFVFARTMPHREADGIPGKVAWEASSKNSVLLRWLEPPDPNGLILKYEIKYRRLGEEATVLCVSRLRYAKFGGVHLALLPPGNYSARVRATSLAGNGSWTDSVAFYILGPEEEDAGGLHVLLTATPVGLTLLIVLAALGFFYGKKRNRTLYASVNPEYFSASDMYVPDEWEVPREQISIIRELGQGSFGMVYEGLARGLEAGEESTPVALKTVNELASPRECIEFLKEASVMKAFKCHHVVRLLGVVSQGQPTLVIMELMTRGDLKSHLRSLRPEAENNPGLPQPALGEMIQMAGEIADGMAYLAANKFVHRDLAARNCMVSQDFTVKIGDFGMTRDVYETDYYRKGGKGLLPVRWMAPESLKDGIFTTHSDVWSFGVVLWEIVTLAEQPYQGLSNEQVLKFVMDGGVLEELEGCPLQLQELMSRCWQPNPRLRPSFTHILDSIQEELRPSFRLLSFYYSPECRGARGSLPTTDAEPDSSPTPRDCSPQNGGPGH

COC(=O)/C=C/C(=O)OC
residual activity ([1]; compound 10.0 µM): 103%
residual activity ([1]; compound 100.0 µM): 108%
residual activity ([1]; compound 1000.0 µM): 112%
residual activity ([2]; compound 10.0 µM): 106%
residual activity ([2]; compound 100.0 µM): 104%
residual activity ([2]; compound 1000.0 µM): 109%
residual activity ([3]; compound 100.0 µM): 101%
residual activity ([3]; compound 1000.0 µM): 93%
residual activity ([4]; compound 10.0 µM): 97%
residual activity ([4]; compound 100.0 µM): 104%
residual activity ([4]; compound 1000.0 µM): 101%
residual activity ([5]; compound 10.0 µM): 91%
residual activity ([5]; compound 100.0 µM): 108%
residual activity ([6]; compound 10.0 µM): 87%
residual activity ([6]; compound 100.0 µM): 125%
residual activity ([6]; compound 1000.0 µM): 93%
residual activity ([7]; compound 10.0 µM): 100%
residual activity ([7]; compound 100.0 µM): 105%
residual activity ([7]; compound 1000.0 µM): 116%
residual activity ([8]; compound 10.0 µM): 87%
residual activity ([8]; compound 100.0 µM): 82%
residual activity ([8]; compound 1000.0 µM): 86%
residual activity ([9]; compound 10.0 µM): 107%
residual activity ([9]; compound 100.0 µM): 105%
residual activity ([10]; compound 10.0 µM): 91%
residual activity ([10]; compound 100.0 µM): 94%
residual activity ([10]; compound 1000.0 µM): 103%
residual activity ([11]; compound 10.0 µM): 98%
residual activity ([11]; compound 100.0 µM): 115%
residual activity ([11]; compound 1000.0 µM): 108%
residual activity ([12]; compound 10.0 µM): 118%
residual activity ([12]; compound 100.0 µM): 118%
residual activity ([12]; compound 1000.0 µM): 120%
residual activity ([13]; compound 10.0 µM): 100%
residual activity ([13]; compound 100.0 µM): 100%
residual activity ([13]; compound 1000.0 µM): 102%
residual activity ([14]; compound 10.0 µM): 106%
residual activity ([14]; compound 100.0 µM): 124%
residual activity ([14]; compound 1000.0 µM): 129%
residual activity ([15]; compound 10.0 µM): 92%
residual activity ([15]; compound 100.0 µM): 96%
residual activity ([15]; compound 1000.0 µM): 99%
residual activity ([16]; compound 10.0 µM): 99%
residual activity ([16]; compound 100.0 µM): 101%
residual activity ([16]; compound 1000.0 µM): 105%
residual activity ([17]; compound 10.0 µM): 101%
residual activity ([17]; compound 100.0 µM): 103%
residual activity ([17]; compound 1000.0 µM): 105%
residual activity ([18]; compound 10.0 µM): 77%
residual activity ([18]; compound 100.0 µM): 75%
residual activity ([18]; compound 1000.0 µM): 87%
residual activity ([19]; compound 10.0 µM): 81%
residual activity ([19]; compound 100.0 µM): 94%
residual activity ([19]; compound 1000.0 µM): 86%
residual activity [20]: 103%
residual activity ([21]; compound 10.0 µM): 89%
residual activity ([21]; compound 100.0 µM): 100%
residual activity ([21]; compound 1000.0 µM): 96%
residual activity ([22]; compound 10.0 µM): 110%
residual activity ([22]; compound 1000.0 µM): 108%
residual activity ([23]; compound 10.0 µM): 60%
residual activity ([23]; compound 100.0 µM): 62%
residual activity ([23]; compound 1000.0 µM): 79%
residual activity ([24]; compound 10.0 µM): 88%
residual activity ([24]; compound 100.0 µM): 96%
residual activity ([24]; compound 1000.0 µM): 99%
residual activity ([25]; compound 10.0 µM): 91%
residual activity ([25]; compound 100.0 µM): 101%
residual activity ([25]; compound 1000.0 µM): 103%
residual activity ([26]; compound 10.0 µM): 93%
residual activity ([26]; compound 100.0 µM): 104%
residual activity ([26]; compound 1000.0 µM): 111%
residual activity ([27]; compound 100.0 µM): 93%
residual activity ([27]; compound 1000.0 µM): 91%
residual activity ([28]; compound 10.0 µM): 98%
residual activity ([28]; compound 100.0 µM): 105%
residual activity ([28]; compound 1000.0 µM): 119%
residual activity ([29]; compound 10.0 µM): 74%
residual activity ([29]; compound 100.0 µM): 72%
residual activity ([29]; compound 1000.0 µM): 84%
residual activity ([30]; compound 10.0 µM): 95%
residual activity ([30]; compound 100.0 µM): 106%
residual activity ([31]; compound 100.0 µM): 109%
residual activity ([31]; compound 1000.0 µM): 118%
residual activity [32]: 135%
residual activity ([33]; compound 10.0 µM): 92%
residual activity ([33]; compound 100.0 µM): 86%
residual activity ([33]; compound 1000.0 µM): 93%
